Measurements: patent publication US11357786B2, “Synthetic disugar hydrocarbons as natural analogs to control microbial behaviors” (Syracuse University, priority 2014, dated 2022)
“Also recorded” adds a separate entry of the source.

Columns and labels:
[1] = test system: nonswarming P. aeruginosa mutant rhlA; experiment: Swarming motility of nonswarming rhlA mutant on soft agar (reactivation / agonist assay); format: cell-based, Pseudomonas aeruginosa; conditions: 85 μM in soft agar (0.5%), 24 h
Procedure, shortened: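 rhlA transposon mutant of PAO1 (3 μl, OD600 0.4–0.6) inoculated on M8 soft agar (0.2% glucose, 0.5% casamino acids, 1 mM MgSO4, 0.5% agar) with test compound to find swarming agonists. Incubated 12 h at 37 °C plus 12 h at room temperature; swarm area measured by weighing paper cut-outs of imaged swarms.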

wild type PAO1 = experiment: Swarming motility of wild type PAO1 on soft agar (antagonist assay); format: cell-based, Pseudomonas aeruginosa; conditions: for Swarming motility of wild type PAO1: 85 μM in soft agar, 24 h; for Effect on PAO1 swarming: concentration not given
Procedure, shortened: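 Wild-type PAO1 culture (OD600 ~0.4–0.6, 3 μl) spotted on M8 swarm agar with 0.2% glucose, 0.5% casamino acids, 1 mM MgSO4 and 0.5% agar. Plates incubated 12 h at 37 °C then 12 h at room temperature; swarm area measured by cutting and weighing printed plate images.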

PAO1 biofilm = experiment: Crystal violet based static biofilm inhibition assay, DSHs in LB media (Examples 2 and 4); format: cell-based, Pseudomonas aeruginosa; conditions: for Inhibition of PAO1 biofilm formation (surface attached): 160 μM, 24 h, LB media; for Anti-biofilm activity (biofilm inhibition): concentration not given
Procedure, shortened: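 PAO1 subculture (OD600 ~0.1) was grown statically in LB at 37° C for 24 h with or without DSHs (screened at 160 μM). Surface-attached biofilm was then stained with 0.1% crystal violet, solubilised in 30% AcOH and read at 600 nm. Values are the mean of 4 wells.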

[2] = test system: planktonic Pseudomonas aeruginosa (PAO1); experiment: Planktonic bacterial growth (OD600 growth curve); format: cell-based; conditions: 160 μM, LB
Experimental: Antimicrobial activities of disaccharide hydrocarbons against planktonic growth. Overnight inoculum of PAO1 was sub-cultured to an OD600˜0.1 and then aliquoted (200 μL) into the wells of a micro-titer plate and DSHs (˜160 μM) were then added to assigned wells. Wells with no-agents were created as a positive control. The micro-titer plate was then placed in a rotary shaker (250 rpm at 37° C.) and optical density was measured after regular intervals of time using Biotek ELx800 ™ absorbance microplate reader (BioTek Instruments, Inc., Winooski, Vt.) using Gen5™ data analysis software. The OD600 values were taken in sterile conditions over 24 h. The OD600 values were plotted against time to obtain a growth curve for planktonic growth with or without agents.
Optical density was measured using Biotek ELx800 ™ absorbance microplate reader (BioTek Instruments, Inc., Winooski, Vt.) using Gen5™ data analysis software. The OD600 values were taken in sterile conditions at 0, 2, 4, 6, 8, 10, 12, and 24 h after bacterial culture inoculation in 96-well polystyrene plate with and without agents.

PAO1 and rhlA = experiment: Bacterial growth on soft agar swarm plate; format: cell-based, Pseudomonas aeruginosa
Experimental: Swarm agar plates were based on M8 medium supplemented with 0.2% glucose, 0.5% casamino acid, 1 mM MgSO4 and […]. 17 For each set of experiment all the swarm plates were poured from same batch of agar and allowed to dry for 1 h before inoculation of bacteria. Bacterial culture (3 μl) (wild type PAO1 or rhlA mutant) with OD600 between […] was inoculated on the solidified agar plates. Swarm agar plates were incubated at 37° C. for 12 h and then incubated for additional 12 h at room temp. Chronological images of swarm plates were taken using a camera. To measure swarming area, sizes of the petridish in all swarming images were adjusted to a pre-assigned diameter and images were printed on copying paper (Xerox-business 4200). Weight of a 1 cm^2 copy paper square was roughly ˜8.0 mg. swarming images on the copy paper were cut and weighed, the swarm area was calculated by dividing the weight of image by weight of 1 cm^2 square (8 mg).

PAO1-EGFP = experiment: Fluorescence adhesion assay on polystyrene, DSHs (Examples 2 and 4); format: cell-based, Pseudomonas aeruginosa; conditions: 160 μM
Experimental: The ability of DSHs was tested to inhibit Pseudomonas aeruginosa adhesion, biofilm and to disperse pre-formed biofilm. To quantify the amount of PAO1/EGFP attached on the surface of micro titer plates with or without the synthesized DSHs, fluorescence emitted by green fluorescent proteins (GFP) was quantified (see supporting info for details). Crystal violet (CV) based static biofilm assay (see supporting info) was used to screen the anti-biofilm potencies of all synthesized agents. Both surface attached (SA) (FIG. 17) and total (SA+air-liquid interface) biofilm of P. aeruginosa was quantified. […] CV assays were also used to quantify the amount of P. aeruginosa biofilm remaining after dispersion experiments (FIG. 19). Initially, all agents were screen for anti-biofilm activities (both inhibition and dispersion) at 160 μM. […]
The effect that DSHs have on the adhesion of PAO1-EGFP on polystyrene surface (microtiter plate) was also examined. […] After 24-hours, the fluorescent signal obtained from surface adhered PAO1-EGFP was measured. Percent reduction in fluorescence was calculated by comparing fluorescent signal from PAO1-EGFP grown in LB-media with the signal from wells that had DSHs (FIG. 29A). […] After 24 hours, the surface attached biofilms adhering to the bottom of the wells were stained with crystal-violet dye and the biofilm was quantified by measuring absorbance at 600 nm (OD600). […]

1-day old PAO1 biofilm = experiment: Crystal violet assay for dispersion of 1-day old biofilm, DSHs (Examples 2 and 4); format: cell-based, Pseudomonas aeruginosa; conditions: 160 μM, another 24 h
Experimental: The effect that DSHs have on the adhesion of PAO1-EGFP on polystyrene surface (microtiter plate) was also examined. PAO1-EGFP is a P. aeruginosa strain that constitutively expresses green fluorescent protein. In the adhesion assays, PAO1-EGFP was grown in microtiter plate for 24-hours in LB-media with (160 μM) or without DSHs. After 24-hours, the fluorescent signal obtained from surface adhered PAO1-EGFP was measured. Percent reduction in fluorescence was calculated by comparing fluorescent signal from PAO1-EGFP grown in LB-media with the signal from wells that had DSHs (FIG. 29A). To study the effect of DSHs on biofilm formation, Pseudomonas aeruginosa (PAO1) was grown in LB-media with (160 μM) or without DSHs at 37° C. under static conditions within wells of microtiter plates. After 24 hours, the surface attached biofilms adhering to the bottom of the wells were stained with crystal-violet dye and the biofilm was quantified by measuring absorbance at 600 nm (OD600). The percent inhibition was calculated by comparing biofilm content of wells with no added agents (control) with the biofilm content from wells that had 160 μM of DSHs (FIG. 29A). Similar to inhibition, the surface attached biofilm after dispersion with DSHs was quantified with crystal-violet staining and absorbance measurement at 600 nm, except that for dispersion, biofilm was first grown for 1 day in just LB-media without any DSHs after which DSHs were added and plates were incubated for additional 24 hours followed by quantification (FIG. 29B).
Crystal violet based assay for quantifying dispersion of 1-day old PAO1 biofilms were Plate for set up similar to inhibition assay with a slight modification. Wells of the micro-titer plate was inoculated with (200 μL) bacterial subculture (PAO1 subculture OD600 ˜0.1). The plates were incubated at 37° C. for 24 hours to allow biofilm formation. After 24 hours, bacterial culture was gently pipetted out and appropriate volume of DSH were added followed by addition of fresh LB medium (200 μL). The microtiter plate was incubated for an additional 24 hours at 37° C., following which, similar to work up of inhibition assay, culture was removed, wells were washed and CV-dye was introduced, followed by washing and destaining with 30% AcOH solution in water and quantification at 600 nm. Here again, only the surface attached biofilm dispersed was reported by comparing wells with DSHs with wells with no agent.
Dose dependence assays for biofilm inhibition and dispersion. […] Both for biofilm inhibition and dispersion, predetermined volumes of DSH stocks were added to the assigned wells to span a concentration range between 0.5 μM-170 μM. Percent biofilm inhibition of dispersion was calculated by comparing to wells with no agent. The percent biofilm inhibition or dispersion was plotted versus concentration of DSHs. The linear values were logarithmically curve fitted using equation […]. The half maximal inhibitory concentration for both biofilm inhibition and dispersion (IC50 and DC50) were thus obtained.

| Compound | Swarming motility of rhlA mutant [1] | Swarming motility of wild type PAO1 (wild type PAO1) | Effect on PAO1 swarming (wild type PAO1) | Inhibition of PAO1 biofilm formation (surface attached) (PAO1 biofilm; listed as 11: FβC, 160 µM) | Anti-biofilm activity (biofilm inhibition) (PAO1 biofilm) | Inhibition of planktonic growth of Pseudomonas aeruginosa [2] | Bacterial growth on soft-agar plate (PAO1 and rhlA; 160 μM, PAO1 and rhlA) | Bacterial growth on soft agar (~0.5%) plate (PAO1 and rhlA; PAO1, concentration not stated) | Inhibition of PAO1 biofilm formation (surface attached) (PAO1 biofilm) | Inhibition of PAO1 biofilm formation (surface attached) (PAO1 biofilm; listed as 18: DβCDS, 160 µM) | Adhesion inhibition of PAO1-EGFP on polystyrene (PAO1-EGFP) | Dispersion of 24-h old PAO1 biofilm (1-day old PAO1 biofilm) |
| --- | --- | --- | --- | --- | --- | --- | --- | --- | --- | --- | --- | --- |
| CC(C)=CCC/C(C)=C/CC/C(C)=C/CO[C@@H]1O[C@H](CO)[C@@H](O[C@@H]2O[C@H](CO)[C@@H](O)[C@H](O)[C@H]2O)[C@H](O)[C@H]1O [FβC (11), farnesyl-β-cellobioside] | weak activation of rhlA swarming motility | weak promotion of swarming motility of wild type PAO1 | no apparent effect on PAO1 swarming | poor anti-biofilm activity | did not show anti-biofilm activities | did not inhibit the planktonic growth | complete abolition of bacterial growth on the soft-agar plate | inhibited bacterial (PAO1) growth on a soft agar |  |  |  |  |
| dodecyl-β-cyclodextrin [DβCDS (18)] | no significant effect on the swarming motility | no significant effect on the swarming motility | no apparent effect on PAO1 swarming |  | weak anti-biofilm activity; also recorded: did not show anti-biofilm activities |  |  |  | insignificant biofilm inhibition | increased the biofilm content | 29% | promoted biofilm formation instead of causing dispersion |
